# Experimental data: patent publication EP0217101A1, “Substituted diphenyl ethers, process for their preparation and their use as herbicides” (HOECHST AKTIENGESELLSCHAFT, priority 1985, dated 1987)
# Assays:
# Type in all cases: in vivo
# Stellaria media [1] = assay: Weed control pre-emergence (greenhouse pot test); conditions: pre-emergence, 2,5 kg a.i./ha, visual rating after 3-4 weeks
# Text: (§1) Die Schädigung der Unkrautpflanzen bzw. die Kulturpflanzenverträglichkeit wurde gemäß einem Schlüssel bonitiert, in dem die Wirksamkeit durch Wertzahlen von 0 - 5 ausgedrückt ist. Dabei bedeutet:
# (§2) Samen bzw. Rhizomstücke von mono- und dikotylen Unkrautpflanzen wurden in Plasstiktöpfen (0 = 9 cm) in sandiger Lehmerde ausgelegt und mit Erde abgedeckt. Die in Form von benetzbaren Pulvern oder Emulsionskonzentraten formulierten erfindungsgemäßen Verbindungen wurden dann als wäßrige Suspensionen bzw. Emulsionen mit einer Wasseraufwandmenge von umgerechnet 600-800 1/ha in unterschiedlichen Dosierungen auf die Oberfläche der Abdeckerde appliziert. Nach der Behandlung wurden die Töpfe im Gewächshaus aufgestellt und unter guten Wachstumsbedingungen für die Unkrautpflanzen gehalten (Temperatur 23 plus/minus 1 Grad Celsius, relative Luftfeuchte 60-80 %).
# (§3) Die optische Bonitur der Pflanzen- bzw. Auflaufschäden erfolgte nach dem Auflaufen der Versuchspflanzen nach einer Versuchszeit von 3-4 Wochen im Vergleich zu unbehandelten Kontrollen.
# Echinochloa crus-galli [2] = assay: Weed control pre-emergence (greenhouse pot test); conditions: pre-emergence, 2,5 kg a.i./ha, visual rating after 3-4 weeks
# Text: as §1, §2, §3
# Sinapis arvensis [3] = assay: Weed control post-emergence (greenhouse pot test); conditions: post-emergence (three-leaf stage), 2,5 kg a.i./ha, visual rating after ca. 3-4 weeks
# Text: as §1
# (§4) Samen bzw. Rhizomstüeke von mono- und dikotylen Unkräutern wurden in Plasstiktöpfen (φ= 9 cm) in sandigem Lehmboden ausgelegt, mit Erde abgedeckt und im Gewächshaus unter guten Wachstumsbedingungen angezogen. Drei Wochen nach der Aussaat wurden die Versuchspflanzen im Dreiblattstadium behandelt. Die als Spritzpulver bzw. als Eτulsionskonzentrate formulierten erfindungsgemäßen Verbindungen wurden in verschiedenen Dosierungen mit einer Wasseraufwandmenge von umgerechnet 600-800 l/ha auf die grünen Pflanzenteile gesprüht und nach ca. 3-4 Wochen Standzeit der Versuchspflanzen im Gewächshaus unter optimalen Wachstumsbedingungen (Temperatur 23°C +/- 1°C, relative Luftfeuchte 60-80 %) die Wirkung der Präparate optisch im Vergleich zu unbehandelten Kontrollen bonitiert.
# Avena sativa [4] = assay: Weed control post-emergence (greenhouse pot test); conditions: post-emergence (three-leaf stage), 2,5 kg a.i./ha, visual rating after ca. 3-4 weeks
# Text: as §1, §4
# Chrysanthemum segetum [5] = assay: Weed control post-emergence (greenhouse pot test); conditions: post-emergence (three-leaf stage), 2,5 kg a.i./ha, visual rating after ca. 3-4 weeks
# Text: as §1, §4
# Sinapis arvensis [6] = assay: Weed control pre-emergence (greenhouse pot test); conditions: pre-emergence, 2,5 kg a.i./ha, visual rating after 3-4 weeks
# Text: as §1, §2, §3
# Avena sativa [7] = assay: Weed control pre-emergence (greenhouse pot test); conditions: pre-emergence, 2,5 kg a.i./ha, visual rating after 3-4 weeks
# Text: as §1, §2, §3
# Chrysanthemum segetum [8] = assay: Weed control pre-emergence (greenhouse pot test); conditions: pre-emergence, 2,5 kg a.i./ha, visual rating after 3-4 weeks
# Text: as §1, §2, §3
# Stellaria media [9] = assay: Weed control post-emergence (greenhouse pot test); set-up: key: 0: = ohne Wirkung bzw. Schaden; 1: = 0 - 20 % Wirkung bzw. Schaden; = 20 - 40 % Wirkung bzw. Schaden; 3: = 40 - 60 % Wirkung bzw. Schaden; 4: = 60 - 80 % Wirkung bzw. Schaden; 5: = 80 - 100 % Wirkung bzw. Schaden; conditions: post-emergence (three-leaf stage), 2,5 kg a.i./ha, visual rating after ca. 3-4 weeks
# Text: as §1, §4
# Echinochloa crus-galli [10] = assay: Weed control post-emergence (greenhouse pot test); set-up: key: 0: = ohne Wirkung bzw. Schaden; 1: = 0 - 20 % Wirkung bzw. Schaden; = 20 - 40 % Wirkung bzw. Schaden; 3: = 40 - 60 % Wirkung bzw. Schaden; 4: = 60 - 80 % Wirkung bzw. Schaden; 5: = 80 - 100 % Wirkung bzw. Schaden; conditions: post-emergence (three-leaf stage), 2,5 kg a.i./ha, visual rating after ca. 3-4 weeks
# Text: as §1, §4
smiles,measurement,setting,value
Cc1ncsc1COC(OC(=O)c1cc(Oc2ccc(C(F)(F)F)cc2Cl)ccc1[N+](=O)[O-])C(Cl)(Cl)Cl (centres unmarked) [compound 37],Herbizide Wirkung im Vorauflauf STM,Stellaria media [1],1 (= 0 - 20 % Wirkung bzw. Schaden)
same,Herbizide Wirkung im Vorauflauf ECG,Echinochloa crus-galli [2],2 (= 20 - 40 % Wirkung bzw. Schaden)
same,Herbizide Wirkung im Nachauflauf SIA,Sinapis arvensis [3],5 (= 80 - 100 % Wirkung bzw. Schaden)
same,Herbizide Wirkung im Nachauflauf AS,Avena sativa [4],2 (= 20 - 40 % Wirkung bzw. Schaden)
same,Herbizide Wirkung im Nachauflauf CRS,Chrysanthemum segetum [5],4 (= 60 - 80 % Wirkung bzw. Schaden)
same,Herbizide Wirkung im Vorauflauf SIA,Sinapis arvensis [6],4 (= 60 - 80 % Wirkung bzw. Schaden)
same,Herbizide Wirkung im Vorauflauf AS,Avena sativa [7],2 (= 20 - 40 % Wirkung bzw. Schaden)
same,Herbizide Wirkung im Vorauflauf CRS,Chrysanthemum segetum [8],3 (= 40 - 60 % Wirkung bzw. Schaden)
same,Herbizide Wirkung im Nachauflauf STM,Stellaria media [9],0
same,Herbizide Wirkung im Nachauflauf ECG,Echinochloa crus-galli [10],2 (= 20 - 40 % Wirkung bzw. Schaden)
CP(C)(=O)COC(OC(=O)c1cc(Oc2ccc(C(F)(F)F)cc2Cl)ccc1[N+](=O)[O-])C(Cl)(Cl)Cl (centres unmarked) [compound 46],Herbizide Wirkung im Vorauflauf STM,Stellaria media [1],1 (= 0 - 20 % Wirkung bzw. Schaden)
same,Herbizide Wirkung im Vorauflauf ECG,Echinochloa crus-galli [2],5 (= 80 - 100 % Wirkung bzw. Schaden)
same,Herbizide Wirkung im Nachauflauf SIA,Sinapis arvensis [3],5 (= 80 - 100 % Wirkung bzw. Schaden)
same,Herbizide Wirkung im Nachauflauf AS,Avena sativa [4],2 (= 20 - 40 % Wirkung bzw. Schaden)
same,Herbizide Wirkung im Nachauflauf CRS,Chrysanthemum segetum [5],5 (= 80 - 100 % Wirkung bzw. Schaden)
same,Herbizide Wirkung im Vorauflauf SIA,Sinapis arvensis [6],5 (= 80 - 100 % Wirkung bzw. Schaden)
same,Herbizide Wirkung im Vorauflauf AS,Avena sativa [7],4 (= 60 - 80 % Wirkung bzw. Schaden)
same,Herbizide Wirkung im Vorauflauf CRS,Chrysanthemum segetum [8],5 (= 80 - 100 % Wirkung bzw. Schaden)
same,Herbizide Wirkung im Nachauflauf STM,Stellaria media [9],2 (= 20 - 40 % Wirkung bzw. Schaden)
same,Herbizide Wirkung im Nachauflauf ECG,Echinochloa crus-galli [10],2 (= 20 - 40 % Wirkung bzw. Schaden)
